Test results taken from patent US5430150A, “Retroviral protease inhibitors” (American Cyanamid Company, priority 1992, dated 1995).

Experiments:
[1] = target: HIV-1 protease (Human immunodeficiency virus type 1 group M subtype B, UniProt P04585); experiment: biochemical; type: biochemical; details: Activity of Compounds as Enzyme Inhibitor
Description: IC50 values for enzyme inhibition are determined using HIV-1 and Amersham's HIV proteinase [^125 I]-scintillation proximity assay (SPA).
Amersham's HIV proteinase [^125 I]-SPA system is a commercial assay incorporating the scintillation proximity assay (SPA) principle available from Amersham International PLC, Bucks, England.
The SPA microspheres provided by Amersham have the substrate linked directly to the surface through a streptavidin-biotin link. The substrate is a 12 residue peptide designed specifically for this application utilizing current knowledge of known cleavage sites for the enzyme and analogue substrate studies. The sequence of the substrate is: [drawing 22]
The peptide is monoiodinated on the tyrosine residue and biotinylated through the epsilon-NH2 group on the lysine. It is linked to the SPA bead via a streptavidin-link. The beads are suspended in a buffer consisting of 5 mM DTT, 1 mM EDTA, 10% w/v glycerol, 0.05% W/v sodium azide, 0.01% v/v Triton X-100 in 25 mM sodium citrate buffer pH 5.5.
The enzyme cleaves at the Phe-Phe bond releasing the ^125 I fragment from the bead. This event causes the removal of detectable signal from the microsphere. […] The rate of reduction in signal is proportional to the activity of the enzyme. The obtained data is used to calculate the IC50 values found in Table 1.

[2] = test system: HIV-1 strain IIIB in T lymphoid MT-2 cell lines; experiment: inhibition of growth of HIV-1 strain IIIB in T lymphoid MT-2 cell lines (metabolic MTT dye); type: cell-based
Description: In Table 2, data is shown for the ability of these compounds to inhibit growth of HIV-1 strain IIIB in T lymphoid MT-2 cell lines. The cell line is challenged by free virons selected to result in 90-95% cell death (CPE) by day 5. The protease inhibitor compound is then added in the stated concentration. After 5 days, the surviving cells are measured using metabolic MTT dye.

[3] = mouse plasma level after IP or oral administration; type: in vivo; details: mice; for time for which plasma concentrations of >0.13 microgram/ml are achieved: aqueous liposomal formulation

IC50 [1]: 72.8 nM | time for which plasma concentrations of >0.13 microgram/ml are achieved ([3]; IP 8.3 mg/kg): 2.8 h | time for which plasma concentrations of >0.13 microgram/ml are achieved ([3]; IP 16.6 mg/kg): 4.2 h | time for which plasma concentrations >0.13 microgram/ml are maintained ([3]; oral 16.6 mg/kg (FIG. 1)): 2 h
SMILES: CC[C@H](C)[C@H](NC(=O)[C@H](Cc1ccccc1)CC(O)CN1C[C@H]2CCCC[C@H]2C[C@H]1C(=O)NC(C)(C)C)C(=O)NCc1nc2ccccc2[nH]1 (single isomer, unassigned) [Example 24B, [3S-[2[alphaS*(1R*,2R*),gammaS*(or R*)],3alpha,4abeta,8abeta]]-N-[1-[[(1H-Benzimidazol-2-ylmethyl)amino]carbonyl]-2-methylbutyl]-3-[[(1,1-dimethylethyl)amino]carbonyl]decahydro-gamma-hydroxy-alpha-(phenylmethyl)-2-isoquinolinepentanamide]
% Inhibition at concentration 0.010 μg/ml ([2]; 0.010 μg/ml, 5 days): 16.2% | % Inhibition at concentration 0.039 μg/ml ([2]; 0.039 μg/ml, 5 days): 81.4% | % Inhibition at concentration 0.156 μg/ml ([2]; 0.156 μg/ml, 5 days): 93.0% | % Inhibition at concentration 0.625 μg/ml ([2]; 0.625 μg/ml, 5 days): 94.7% | % Inhibition at concentration 2.5 μg/ml ([2]; 2.5 μg/ml, 5 days): 94.9% | inhibition of HIV-1 strain IIIB viral growth in MT-2 cell lines ([2]; concentration >0.13 microgram/ml): > 90%
